Laboratory results as given in publication PMC8306139, “A Novel Dialkylamino-Functionalized Chalcone, DML6, Inhibits Cervical Cancer Cell Proliferation, In Vitro, via Induction of Oxidative Stress, Intrinsic Apoptosis and Mitotic Catastrophe” (Molecules, 2021).
Read-outs that look alike come from different tables or passages of the source.

Key:
[1] = system: caspase-3/7 in OV2008 cells; assay: Time-dependent apoptosis induction (Caspase-3/7 Green reagent); type: cell-based
Experimental: Cell Event™ Caspase-3/7 Green Detection Reagent from (Catalog # C10423, Life Technologies, Carlsbad, CA, USA), which is a novel fluorogenic substrate for activated caspase-3/7 that is compatible with living cells, was used to determine apoptosis activation in real-time in OV2008 cells incubated with DML6. Briefly, OV2008 cells were seeded in 96-well plates at a density of 1 × 10^3 cell/well. Twenty-four hours later, the cells were incubated with the vehicle (DMEM media with 10% FBS and 1% penicillin and streptomycin), 5 or 20 µM of DML6 for 72 h. Five micromolar of the apoptosis-detecting reagents were added to the cells immediately after DML6 and were incubated for up to 72 h at 37 °C. Fluorescence was determined every 24h using a live cell imaging system (IncuCyte Zoom, Essen Bioscience, Ann Arbor, MI, USA, using an absorption/emission maximum of ~502/530 nm.

[2] = system: HeLa; assay: MTT assay, HeLa; type: cell-based; details: Homo sapiens, HeLa, 72 h, read-out: IC50 ± SD Cervical HeLa
Experimental: Table S1. The antiproliferative efficacy of the DML1-DML12 compounds on the proliferation of cervical cancer cell line.
Figure S1. The efficacy of DML6 in HeLa cancer cells. The cell-viability curve produced by HeLa cells treated with
vehicle (0 μM), 5 or 10 μM of DML6 after 72 h of incubation. Cell survival was determined using the MTT assay. The
IC50 values are represented as the means ± SD of three independent experiments performed in triplicate. […]

[3] = system: caspase-7; assay: Western blot, cleaved caspase-7; type: cell-based; details: OV2008, 5 or 20 µM, vs vehicle
Experimental: The OV2008 cells were lysed to obtain total cellular protein fractions using Mammalian Protein Extraction Reagent (Catalog # 78501, M-PER™, Thermo Fisher Scientific, Waltham, MA, USA). The cells were seeded in […] at a density of 1 × 10^6 and incubated with 5 or 20 µM of DML6 or 1 µM of doxorubicin (Catalog # T1-2-, TargetMol, Boston, MA, USA) (a positive control) for 24 h. The following day, the cells were washed with ice-cold PBS, scraped using a cell scrapper and collected in Eppendorf tubes. The tubes were centrifuged at 1500 RPM at 4 °C for 5 min. The solution was discarded and replaced with 70 µL of the cell lysis buffer (M-PER reagent, 100 mM Sodium Orthovanadate (NaOV) at a final concentration of 2.5 mM) and a 100X protease inhibitor cocktail (Catalog # P8340, Sigma-Aldrich, St. Louis, MO, USA, final concentration of 1X, containing of aprotinin, bestatin, E-64, leupeptin and pepstatin). Thirty minutes later, the resulting solution was centrifuged at 10,000 RPM at 4 °C for 5 min and the supernatant was collected. The protein concentration of the cell extracts was determined using the bicinchoninic acid (BCA) (Catalog # 786-570, G-Biosciences, Saint Louis, MO, USA) quantification assay. […] Finally, the amount of protein in each blot was quantified using the Image J software (NIH, Bethesda, MD, USA). All data were calculated as a ratio to β-actin.

[4] = system: Chinese hamster ovary cells (CHO)
Experimental: (§1) The concentration of the tested compounds that produced a 50% inhibition of cell growth (IC50) was determined.
(§2) A panel of cancer cell lines, including cervical (OV2008 and HeLa), breast (MDA-MB-231), lung (A549) and colon (LOVO), prostate (DU145), human embryonic kidney cells (HEK293), human colon fibroblast cells (CRL1459), and Chinese hamster ovary cells (CHO), were grown as adherent monolayers in flasks containing Dulbecco’s modified Eagle medium (DMEM), supplemented with 10% fetal bovine serum (FBS) and 1% penicillin and streptomycin, in a humidified incubator with 5% CO2 at 37 °C.
The cells were seeded evenly (180 μL/well) in 96-well plates, at a density of 3000–5000 cells/well and incubated with serial dilutions of the compounds ranging from 0.1 to 100 μM. […] Cytation™ 5 and Cytation™ 7 multi-mode detector (Bio Tek Instruments, Winooski, VT, USA) was used to determine the absorbance readings at a wavelength of 570 nm. The IC50 values were determined based on 3 separate experiments, with each experiment carried out in triplicate. The selectivity of the compounds was determined by comparing their IC50 values in cervical cancer compared to the normal epithelial cell lines, HEK293, CHO, and CRL1459.

[5] = system: OV2008 cells; assay: IncuCyte live-cell morphology study (confluence); type: cell-based; details: 72 hours, vehicle ≈70%
Experimental: Real-time live cell analysis was performed as previously described. In order to determine the morphological changes induced by DML6, OV2008 cells were seeded at 4000 cells/well in a 96-well plate and incubated overnight at 37 °C, with 5% CO2 in an incubator. […] IncuCyte was then programmed to capture the images at different time points (0, 24, 48 and 72 h), using the integrated IncuCyte S3 software version 2020B (Essen BioScience, Ann Arbor, MI, USA).

[6] = system: MDA-MB-231; assay: MTT assay, MDA-MB-231; type: cell-based; details: Homo sapiens, MDA-MB-231, 72 h, read-out: IC50 ± SD Breast MDA-MB-231
Experimental: as §1, §2
(§3) The cells were seeded evenly (180 μL/well) in 96-well plates, at a density of 3000–5000 cells/well and incubated with serial dilutions of the compounds ranging from 0.1 to 100 μM. The MTT dye (4 mg/ml) was added after 72 h of incubation and incubated with the cells for an additional 4 h at 37 °C, allowing the viable cells to biotransform the yellow-colored MTT into dark-blue formazan crystals. Following incubation, the medium was aspirated, and the formazan crystals were dissolved by adding 100 μL of DMSO to each well. Cytation™ 5 and Cytation™ 7 multi-mode detector (Bio Tek Instruments, Winooski, VT, USA) was used to determine the absorbance readings at a wavelength of 570 nm. The IC50 values were determined based on 3 separate experiments, with each experiment carried out in triplicate.

[7] = system: HEK293; assay: MTT assay, HEK293; type: cell-based, human; details: read-out: IC50 ± SD Kidney HEK293
Experimental: as §1, §2, §3

CN(C)c1ccc(/C=C/C(=O)c2ccc(Cl)cc2Cl)cc1 [DML6, (E)-1-[2,4-dichlorophenyl]-3-(4-(dimethylamino)phenyl)prop-2-en-1-one]
incubation time required to induce apoptosis ([1]; 5 µM): ≈ 48 h
incubation time required to induce apoptosis ([1]; 20 µM): < 24 h
apoptosis induction by activating caspase-3 and caspase-7 ([1]; 5 or 20 μM, time-dependent, vs vehicle): significantly induced apoptosis
IC50 [2]: 9.08 ± 0.69 µM
cleavage (activation) of caspase-7 [3]: significantly increased the cleavage
cytotoxicity in normal cells, CHO [4]: did not produce significant cytotoxicity
confluence of OV2008 ([5]; 5 µM): ≈ 40%
confluence of OV2008 ([5]; 20 µM): ≈ 10%
IC50 [6]: 91.9 ± 11.5 µM
IC50 ([7]; 72 h): 70 ± 42.4 µM
IC50 ([7]; Homo sapiens, HEK293, 72 h): > 65 µM
